From PubChem BioAssay AID1053200 (The Scripps Research Institute Molecular Screening Center, 2014)
Calls of active or inactive are those of the source.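 Rule for the calls: active = inhibition at or above 50% when tested at 10 µM; inactive = inhibition below 50% at 10 µM.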

Molecular target: Methionine--tRNA ligase, mitochondrial (Homo sapiens) (UniProt Q96GW9)
Test: human mitochondrial MetRS inhibition, late-stage follow-up, selectivity assay for T. brucei MetRS inhibitor project, biochemical, radioactivity, round 2 (AID 1053200)
Conditions: recombinant human mitochondrial MetRS, [3H]Met aminoacylation, stronger effect = higher value

Sequence of Methionine--tRNA ligase, mitochondrial (Homo sapiens) (Q96GW9 whole entry, looked up): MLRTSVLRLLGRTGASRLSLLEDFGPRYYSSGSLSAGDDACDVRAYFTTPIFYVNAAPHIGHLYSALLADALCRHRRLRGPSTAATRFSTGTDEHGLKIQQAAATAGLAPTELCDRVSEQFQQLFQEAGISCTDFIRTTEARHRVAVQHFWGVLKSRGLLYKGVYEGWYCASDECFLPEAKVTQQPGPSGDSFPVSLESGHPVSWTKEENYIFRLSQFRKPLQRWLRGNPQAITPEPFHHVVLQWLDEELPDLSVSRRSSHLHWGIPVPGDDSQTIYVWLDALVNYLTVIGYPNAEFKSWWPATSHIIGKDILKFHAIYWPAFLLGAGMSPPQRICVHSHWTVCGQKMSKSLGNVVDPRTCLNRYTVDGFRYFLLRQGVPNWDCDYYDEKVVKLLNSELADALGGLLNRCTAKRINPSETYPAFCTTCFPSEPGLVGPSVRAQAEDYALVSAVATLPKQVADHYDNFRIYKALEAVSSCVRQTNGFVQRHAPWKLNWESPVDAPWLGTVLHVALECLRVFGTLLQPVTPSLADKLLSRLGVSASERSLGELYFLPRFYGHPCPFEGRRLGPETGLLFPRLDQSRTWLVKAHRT

SMILES | inhibition (at 10 µM) | inhibition (inhibition, at 1 µM) [%]
CCN(CC)C(=O)C(=O)c1cn(CC(=O)Nc2cc(Cl)cc(C(F)(F)F)c2)c2ccccc12 | 17.4% (inactive) | -6.78
CCN(CC)C(=O)C(=O)c1cn(CC(=O)Nc2cc(C(F)(F)F)cc(C(F)(F)F)c2)c2ccccc12 | 9.77% (inactive) | -3.97
CCN(CC)C(=O)C(=O)c1cn(CC(=O)Nc2cc(Oc3ccccc3)cc(C(F)(F)F)c2)c2ccccc12 | 21.1% (inactive) | -2.76
CCN(CC)C(=O)C(=O)c1cn(CC(=O)Nc2cc(Br)cc(C(F)(F)F)c2)c2ccccc12 | 12.8% (inactive) | -17.3
CCN(CC)C(=O)C(=O)c1cn(CC(=O)Nc2cccc(C(F)(F)F)c2)c2cc(OC)ccc12 | -1.37% (inactive) | -8.82
CCN(CC)C(=O)C(=O)c1cn(CC(=O)Nc2cc(C)cc(C(F)(F)F)c2)c2ccccc12 | 20.9% (inactive) | -1.02
